The source of these data is US6933313B2, “Substituted carbazoles as inhibitors of sPLA2” (Eli Lilly and Company, priority 2001, dated 2005).

This assay has as its target T1, recombinant human secreted phospholipase A2 (Homo sapiens, UniProt P14555).
T1 sequence (P14555 21-144): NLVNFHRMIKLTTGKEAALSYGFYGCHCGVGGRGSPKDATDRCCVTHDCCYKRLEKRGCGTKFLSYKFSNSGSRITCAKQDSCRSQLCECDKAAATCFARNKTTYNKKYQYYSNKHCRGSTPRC
Briefly: Chromogenic assay for inhibitors of recombinant human secreted phospholipase A2 (Assay Example 1). It is filed as biochemical. Conditions: diheptanoyl thio-PC substrate, pH 7.5, absorbance at 405 nm, triplicate. The text has this: The following chromogenic assay procedure was used to identify and evaluate inhibitors of recombinant human secreted phospholipase A2. The assay described herein has been adapted for high volume screening using 96 well microtiter plates. A general description of this assay method is found in the article, “Analysis of Human Synovial Fluid Phospholipase A2 on Short Chain Phosphatidylcholine-Mixed Micelles: Development of a Spectrophotometric Assay Suitable for a Microtiterplate Reader”, by Laure J. Reynolds, Lori L. Hughes, and Edward A Dennis, Analytical Biochemistry, 204, pp. 190-197, 1992 (the disclosure of which is incorporated herein by reference):
REACTION BUFFER— • CaCl2·2H2O (1.47 g/L) • KCl (7.455 g/L) • Bovine Serum Albumin (fatty acid free) (1 g/L)(Sigma A-7030, product of Sigma Chemical Co., St. Louis Mo., USA) • TRIS HCl (3.94 g/L) • TRIS=(tris(hydroxymethyl)aminomethane) pH 7.5 (adjust with NaOH)
ENZYME BUFFER— • 0.05 NaOAc·3H2O, pH 4.5 • 0.2 NaCl • Adjust pH to 4.5 with acetic acid
DTNB— • 5,5′-dithiobis-2-nitrobenzoic acid
RACEMIC DIHEPTANOYL THIO—PC • racemic 1,2-bis(heptanoylthio)-1,2-dideoxy-sn-glycero-3-phosphorylcholine • TRITON X-100 prepare at 6.249 mg/ml in reaction buffer to equal […] • TRITON X-100 is a polyoxy ethylene non-ionic detergent supplied by Pierce Chemical Company, 3747 N. Meridian Road, Rockford, Ill. 61101.
REACTION MIXTURE— • A measured volume of racemic dipheptanoyl thio PC supplied in chloroform at a concentration of 100 mg/ml is taken to dryness and redissolved in 10 millimolar TRITON X-100 nonionic detergent aqueous solution. Reaction Buffer is added to the solution, then DTNB to give the Reaction Mixture.
The reaction mixture thus obtained contains 1 mM diheptanoly thio-PC substrate, 0.29 mm TRITON X-100 detergent, and 0.12 mm DTMB in a buffered aqueous solution at pH 7.5.
• 1. Add 0.2 ml reaction mixture to all wells; • 2. Add 10 ul test compound (or solvent blank) to appropriate wells, mix 20 seconds; • 3. Add 50 nanograms of sPLA2 (10 microliters) to appropriate wells; • 4. Incubate plate at 40° C. for 30 minutes; • 5. Read absorbance of wells at 405 nanometers with an automatic plate reader.
All compounds were tested in triplicate. Typically, compounds were tested at a final concentration of 5 ug/ml. […] Lack of color development at 405 nanometers evidenced inhibition. Compounds initially found to be active were reassayed to confirm their activity and, if sufficiently active, IC50 values were determined. […] In all cases, % inhibition measured at 405 nanometers generated by enzyme reactions containing inhibitors relative to the uninhibited control reactions was determined. Each sample was titrated in triplicate and result values were averaged for plotting and calculation of IC50 values. IC50 were determined by plotting log concentration versus inhibition values in the range from 10-90% inhibition.
As to `NC(=O)c1cccc2c1c1c(OCC(=O)NO)cccc1n2Cc1ccccc1` [Example 1, [[5-Carbamoyl-9-(phenylmethyl)carbazol-4-yl]oxy]-N-(hydroxy)acetamide], the IC50 (as a rule, the concentration that inhibits the measured activity by half) stood at 18.3 nM.

Turning to `NC(=O)c1cccc2c1c1c(OCC(=O)NOCc3ccccc3)cc(-c3cccs3)cc1n2Cc1ccccc1` [Example 7, [[5-Carbamoyl-9-(phenylmethyl)-2-(thien-2-yl)carbazol-4-yl]oxy]-N-[(phenylmethyl)oxy]acetamide], the IC50 worked out at 29 nM.

For the compound `CON(C)C(=O)COc1cccc2c1c1c(C(N)=O)cccc1n2Cc1ccccc1` [Example 5, [[5-Carbamoyl-9-(phenylmethyl)carbazol-4-yl]oxy]-N-(methoxy)-N-(methyl)acetamide], the IC50 amounted to 42.5 nM.

On to `NC(=O)c1cccc2c1c1c(OCC(=O)NOCc3ccccc3)cccc1n2Cc1ccccc1` [Example 4, [[5-Carbamoyl-9-(phenylmethyl)carbazol-4-yl]oxy]-N-[(phenylmethyl)oxy]acetamide], for which the half-inhibitory concentration (IC50) amounted to 17 nM.

Take `CONC(=O)COc1cccc2c1c1c(C(N)=O)cccc1n2Cc1ccccc1` [Example 2, [[5-Carbamoyl-9-(phenylmethyl)carbazol-4-yl]oxy]-N-(methoxy)acetamide]: the IC50 amounted to 18.7 nM.

For the compound `CCONC(=O)COc1cccc2c1c1c(C(N)=O)cccc1n2Cc1ccccc1` [Example 3, [[5-Carbamoyl-9-(phenylmethyl)carbazol-4-yl]oxy]-N-(ethoxy)acetamide], the IC50 was 19.3 nM.
